In patent US20080021026A1, “BENZOTHIOPHENE INHIBITORS OF RHO KINASE” (priority 2006, published 2008):
Read-outs that look alike come from different tables or passages of the source.

Tests used:
[1] = target: T1, recombinant N-terminal GST-tagged human Rho kinase 2 (ROCK2, amino acids 1-552) (Homo sapiens, UniProt O75116); test: In vitro Rho kinase assay (luciferase-based ATP consumption), ROCK2; assay type: biochemical
T1 construct: ROCK2, amino acids 1-552; purchased Invitrogen Inc. PV3759
Method in brief: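 GST-ROCK2 (aa 1-552, 0.82 μg/ml) with 100 μg/ml S6 peptide and 3 µM ATP in Tris pH 7.5 buffer with MgCl2/CaCl2/EGTA/BSA, compound added just after reaction start, 2 h at 30 °C. Remaining ATP read by luciferase luminescence. Efficacy expressed as percentage of H-1152P positive control.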

[2] = target: T2, recombinant N-terminal GST-tagged human Rho kinase 1 (ROCK1, amino acids 1-535) (Homo sapiens, UniProt Q13464); test: In vitro Rho kinase assay (luciferase-based ATP consumption), ROCK1; assay type: biochemical
T2 construct: ROCK1, amino acids 1-535; purchased Invitrogen Inc. PV-3691
Method in brief: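 GST-ROCK1 (aa 1-535) at 0.82 μg/ml with 100 μg/ml S6 peptide and 3 µM ATP in Tris pH 7.5 buffer with MgCl2, CaCl2, EGTA, BSA; compound added after reaction start, 2 h at 30 °C. Remaining ATP read by luciferase luminescence; efficacy as percent of H-1152P positive control.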

[3] = recombinant GST-tagged human ROCK2, luciferase-based ATP consumption, read-out: ROCK2 IC50
[4] = recombinant GST-tagged human ROCK1, luciferase-based ATP consumption, read-out: ROCK1 IC50
[5] = ROCK2 IC50, recombinant GST-tagged human ROCK2, luciferase-based ATP consumption
[6] = ROCK1 IC50, recombinant GST-tagged human ROCK1, luciferase-based ATP consumption

T1 sequence (O75116 1-552): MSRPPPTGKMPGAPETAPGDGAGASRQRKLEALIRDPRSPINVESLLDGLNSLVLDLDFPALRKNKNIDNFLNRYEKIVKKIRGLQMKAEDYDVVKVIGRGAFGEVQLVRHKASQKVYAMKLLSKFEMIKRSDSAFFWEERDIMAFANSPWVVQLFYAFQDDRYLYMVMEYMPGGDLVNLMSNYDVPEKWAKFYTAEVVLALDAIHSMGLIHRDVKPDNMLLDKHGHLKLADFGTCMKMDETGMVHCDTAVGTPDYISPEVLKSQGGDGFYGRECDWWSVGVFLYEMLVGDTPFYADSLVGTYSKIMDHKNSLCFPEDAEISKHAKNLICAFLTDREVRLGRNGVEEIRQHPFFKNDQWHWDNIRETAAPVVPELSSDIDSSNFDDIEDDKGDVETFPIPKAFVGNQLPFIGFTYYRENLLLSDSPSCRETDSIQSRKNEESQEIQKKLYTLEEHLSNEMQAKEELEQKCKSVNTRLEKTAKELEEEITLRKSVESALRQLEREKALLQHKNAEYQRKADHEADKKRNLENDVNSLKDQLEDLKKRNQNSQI
T2 sequence (Q13464 1-535): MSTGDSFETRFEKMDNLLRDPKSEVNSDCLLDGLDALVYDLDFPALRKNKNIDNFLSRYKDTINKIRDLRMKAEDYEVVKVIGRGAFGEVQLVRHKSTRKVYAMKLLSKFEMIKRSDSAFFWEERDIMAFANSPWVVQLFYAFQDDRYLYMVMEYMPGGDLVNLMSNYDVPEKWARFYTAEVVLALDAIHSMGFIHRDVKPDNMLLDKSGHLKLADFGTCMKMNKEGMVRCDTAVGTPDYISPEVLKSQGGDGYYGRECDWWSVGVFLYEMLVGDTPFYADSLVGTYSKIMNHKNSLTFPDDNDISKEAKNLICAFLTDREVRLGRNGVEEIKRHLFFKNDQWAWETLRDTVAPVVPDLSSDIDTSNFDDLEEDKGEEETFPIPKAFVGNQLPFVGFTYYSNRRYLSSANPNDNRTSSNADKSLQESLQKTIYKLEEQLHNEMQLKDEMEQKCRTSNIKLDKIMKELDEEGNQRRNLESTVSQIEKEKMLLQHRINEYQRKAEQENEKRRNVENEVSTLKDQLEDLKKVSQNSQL

Row | Structure (SMILES) | IC50 [1, 3] | IC50 [2, 4] | IC50 [1, 5] | IC50 [2, 6]
1 | Cc1c(-c2ccnc(N)n2)sc2ccc(Cc3ccccc3)cc12 [Example 24, 4-(5-Benzyl-3-methylbenzo[b]thiophen-2-yl)pyrimidin-2-amine] | < 5 µM | < 5 µM |  | 
2 | CCCCOc1ccc(C(=O)NCc2ccc3sc(-c4ccnc(N)n4)c(C)c3c2)cc1 [Example 257, CCCCOc1ccc(cc1)C(═O)NCc2ccc3sc(c(C)c3c2)-c4ccnc(N)n4] | > 5 µM | > 5 µM |  | 
3 | Cc1ccc(C(=O)NCc2ccc3sc(-c4ccnc(N)n4)c(C)c3c2)cc1C [Example 136, Cc1ccc(cc1C)C(═O)NCc2ccc3sc(c(C)c3c2)-c4ccnc(N)n4] | > 5 µM | > 5 µM |  | 
4 | Cc1ccc(SCC(=O)NCc2ccc3sc(-c4ccnc(N)n4)c(C)c3c2)cc1 [Example 223, Cc1ccc(SCC(═O)NCc2ccc3sc(c(C)c3c2)-c4ccnc(N)n4)cc1] | < 5 µM | > 5 µM |  | 
5 | Cc1c(-c2ccnc(N)n2)sc2ccc(Nc3cccnc3)cc12 [Example 65, 4-(3-Methyl-5-(pyridin-3-ylamino)benzo[b]thiophen-2-yl)pyrimidin-2-amine] | < 5 µM | < 5 µM |  | 
6 | COc1ccc(OC)c(C(=O)NCc2ccc3sc(-c4ccnc(N)n4)c(C)c3c2)c1 [Example 36, N-((2-(2-Aminopyrimidin-4-yl)-3-methylbenzo[b]thiophen-5-yl)methyl)-2,5-dimethoxybenzamide] | < 5 µM | < 5 µM |  | 
7 | COc1cccc(O)c1C(=O)NCc1ccc2sc(-c3ccnc(N)n3)c(C)c2c1 [Example 181, COc1cccc(O)c1C(═O)NCc2ccc3sc(c(C)c3c2)-c4ccnc(N)n4] | < 5 µM | < 5 µM |  | 
8 | Cc1c(-c2ccnc(N)n2)sc2ccc(CNC(=O)c3cccc(Oc4ccccc4)c3)cc12 [Example 282, Cc1c(sc2ccc(CNC(═O)c3cccc(Oc4ccccc4)c3)cc12)-c5ccnc(N)n5] | > 5 µM | > 5 µM |  | 
9 | Cc1c(-c2ccnc(N)n2)sc2ccc(CNC(=O)c3ccc(OCc4ccccc4)cc3)cc12 [Example 302, Cc1c(sc2ccc(CNC(═O)c3ccc(OCc4ccccc4)cc3)cc12)-c5ccnc(N)n5] | > 5 µM | > 5 µM |  | 
10 | Cc1c(-c2ccnc(N)n2)sc2ccc(CNC(=O)c3ccc(I)cc3)cc12 [Example 319, Cc1c(sc2ccc(CNC(═O)c3ccc(I)cc3)cc12)-c4ccnc(N)n4] | < 5 µM | > 5 µM |  | 
11 | Cc1c(-c2ccnc(N)n2)sc2ccc(CNC(=O)c3ccccc3Cl)cc12 [Example 147, Cc1c(sc2ccc(CNC(═O)c3ccccc3Cl)cc12)-c4ccnc(N)n4] |  |  | < 5 µM | > 5 µM
12 | COc1cccc(C(=O)NCc2ccc3sc(-c4ccnc(N)n4)c(C)c3c2)c1OC [Example 222, COc1cccc(C(═O)NCc2ccc3sc(c(C)c3c2)-c4ccnc(N)n4)c1OC] | < 5 µM | > 5 µM |  | 
13 | Cc1c(-c2ccnc(N)n2)sc2ccc(CNC(=O)c3cccnc3Cl)cc12 [Example 149, Cc1c(sc2ccc(CNC(═O)c3cccnc3Cl)cc12)-c4ccnc(N)n4] |  |  | < 5 µM | > 5 µM
14 | Cc1c(-c2ccnc(N)n2)sc2ccc(CNC(=O)c3cccc(C#N)c3)cc12 [Example 127, Cc1c(sc2ccc(CNC(═O)c3cccc(c3)C#N)cc12)-c4ccnc(N)n4] | < 5 µM | < 5 µM |  | 
15 | COc1ccccc1C=CC(=O)NCc1ccc2sc(-c3ccnc(N)n3)c(C)c2c1 [Example 200, COc1ccccc1C═CC(═O)NCc2ccc3sc(c(C)c3c2)-c4ccnc(N)n4] | < 5 µM | < 5 µM |  | 
16 | Cc1c(-c2ccnc(N)n2)oc2ccc(Br)cc12 [Example 91, 4-(5-Bromo-3-methylbenzofuran-2-yl)pyrimidin-2-amine] | < 5 µM | < 5 µM |  | 
17 | Cc1ccc(C(=O)NCc2ccc3sc(-c4ccnc(N)n4)c(C)c3c2)cc1F [Example 145, Cc1ccc(cc1F)C(═O)NCc2ccc3sc(c(C)c3c2)-c4ccnc(N)n4] | < 5 µM | > 5 µM |  | 

The next lines start with results.

Row | IC50 [1, 3] | IC50 [2, 4] | Structure (SMILES) | IC50 [1, 5] | IC50 [2, 6]
18 | < 5 µM | < 5 µM | Cc1c(-c2ccnc(N)n2)sc2cnccc12 [Example 18, 4-(3-Methylthieno[2,3-c]pyridin-2-yl)pyrimidin-2-amine] |  | 
19 | < 5 µM | < 5 µM | Cc1c(-c2ccnc(N)n2)sc2ccc(CNC(=O)c3ccc(Cl)cc3O)cc12 [Example 190, Cc1c(sc2ccc(CNC(═O)c3ccc(Cl)cc3O)cc12)-c4ccnc(N)n4] |  | 
20 | < 5 µM | < 5 µM | Cc1ccc(C)c(C(=O)NCc2ccc3sc(-c4ccnc(N)n4)c(C)c3c2)c1 [Example 134, Cc1ccc(C)c(c1)C(═O)NCc2ccc3sc(c(C)c3c2)-c4ccnc(N)n4] |  | 
21 | < 5 µM | < 5 µM | CC(=O)Nc1cccc(NC(=O)c2ccc3sc(-c4ccnc(N)n4)c(C)c3c2)c1 [Example 20, N-(3-Acetamidophenyl)-2-(2-aminopyrimidin-4-yl)-3-methylbenzo[b]thiophene-5-carboxamide] |  | 
22 | < 5 µM | > 5 µM | Cc1c(-c2ccnc(N)n2)sc2ccc(CNC(=O)c3ccc(Oc4ccccc4)cc3)cc12 [Example 284, Cc1c(sc2ccc(CNC(═O)c3ccc(Oc4ccccc4)cc3)cc12)-c5ccnc(N)n5] |  | 
23 | < 5 µM | < 5 µM | Cc1c(-c2ccnc(N)n2)sc2ccc(CNC(=O)c3ccccc3C=O)cc12 [Example 129, Cc1c(sc2ccc(CNC(═O)c3ccccc3C═O)cc12)-c4ccnc(N)n4] |  | 
24 | < 5 µM | < 5 µM | COc1cccc(Sc2ccc3sc(-c4ccnc(N)n4)c(C)c3c2)c1 [Example 83, 4-(5-(3-Methoxyphenylthio)-3-methylbenzo[b]thiophen-2-yl)pyrimidin-2-amine] |  | 
25 | > 5 µM | > 5 µM | Cc1c(-c2ccnc(N)n2)sc2ccc(Nc3cccc(OC(F)(F)F)c3)cc12 [Example 54, 4-(3-Methyl-5-(3-(trifluoromethoxy)phenylamino)benzo[b]thiophen-2-yl)pyrimidin-2-amine] |  | 
26 | < 5 µM | < 5 µM | Cc1c(-c2ccnc(N)n2)sc2ccc(CNC(=O)c3ccccc3C(F)(F)F)cc12 [Example 243, Cc1c(sc2ccc(CNC(═O)c3ccccc3C(F)(F)F)cc12)-c4ccnc(N)n4] |  | 
27 | < 5 µM | > 5 µM | CC(=O)NCC(=O)NCc1ccc2sc(-c3ccnc(N)n3)c(C)c2c1 [Example 107, CC(═O)NCC(═O)NCc1ccc2sc(c(C)c2c1)-c3ccnc(N)n3] |  | 
28 | < 5 µM | < 5 µM | Cc1ccc(C(=O)NCc2ccc3sc(-c4ccnc(N)n4)c(C)c3c2)c(C)c1 [Example 131, Cc1ccc(c(C)c1)C(═O)NCc2ccc3sc(c(C)c3c2)-c4ccnc(N)n4] |  | 
29 | < 5 µM | > 5 µM | Cc1c(-c2ccnc(N)n2)sc2ccc(CNC(=O)c3cc(O)ccc3[N+](=O)[O-])cc12 [Example 227, Cc1c(sc2ccc(CNC(═O)c3cc(O)ccc3[N+]([O−])═O)cc12)-c4ccnc(N)n4] |  | 
30 | < 5 µM | < 5 µM | Cc1c(-c2ccnc(N)n2)sc2ccc(CNC(=O)C3CCc4ccccc43)cc12 (stereo not shown) [Example 159, Cc1c(sc2ccc(CNC(═O)C3CCc4ccccc34)cc12)-c5ccnc(N)n5] |  | 
31 | < 5 µM | > 5 µM | Cc1c(-c2ccnc(N)n2)sc2ccc(CNC(=O)C(O)CCl)cc12 (stereo not shown) [Example 112, Cc1c(sc2ccc(CNC(═O)C(O)CCl)cc12)-c3ccnc(N)n3] |  | 
32 | > 5 µM | < 5 µM | Cc1c(-c2ccnc(N)n2)sc2ccc(CNC(=O)c3ccccc3C(=O)c3ccc(F)cc3)cc12 [Example 317, Cc1c(sc2ccc(CNC(═O)c3ccccc3C(═O)c4ccc(F)cc4)cc12)-c5ccnc(N)n5] |  | 
